Consider three molecules from US20100278940A1, “Calcium supplements” (HL DISTRIBUTION COMPANY, priority 2005, published 2010).

The test system of data set [1] is osteoblastic hFOB 1.19 cells. Nature of the data set: MDA assay (H2O2-induced oxidative stress, lipid peroxidation). It counts as cell-based, human. The settings on record: 24 h. The method, then:
(§1) These alterations in temperature were required because hFOB 1.19 cells were conditionally immortalized with a gene encoding a temperature-sensitive mutant (tsA58) of SV40 large T antigen.
(§2) AC was dissolved in HCl:H2O mixture at the ratio of 13:2. Calcium carbonate and calcium citrate were dissolved in distilled water. The stock solution of vitamin D3 was dissolved in ethyl alcohol as per the manufacturer's instructions and directly added in the medium to achieve its final concentration. […] The amount of calcium present in 0.5 mg of AC is 0.15 mg. […] Finally, the pH was maintained same in all the preparations.
After 24 h of treatment with compounds in the presence and absence of H2O2 (0.3 mM), the cells were washed with cold PBS, scraped, and homogenized in lysis buffer. […] of cell lysate was used for measuring the MDA levels by following the manufacturer's instructions. […] In this study, MDA standard was used to construct a standard curve.
(§3) Data were expressed as the mean±SEM of 3-6 independent experiments. Statistical comparisons of the results were made using one way analysis of variance (ANOVA). Significant differences (p≦0.05) between the means of control and test group were analyzed by the Neuman-Keuls multiple comparison test.

Data set [2] concerns Human fetal osteoblast cells (hFOB 1.19). Nature of the data set: Alkaline phosphatase (ALP) activity in osteoblast cells. Type of data set: cell-based. The settings on record: 4 days; AC 0.5 mg/ml, 0.15 mg/ml calcium from carbonate or citrate; mean±SEM. The method, then:
as §1, §2, §3

Data set [3] has the same test system. Nature of the data set: DNA synthesis assay ([3H] thymidine incorporation). It counts as cell-based. Particulars: 4 days treatment, without vitamin D3; mean±SEM. The method, then:
as §1, §2, §3
(In general: Incorporation of labelled thymidine or its analogues reports DNA synthesis.)

The test system is the same in data set [4]. Nature of the data set: Mineralization/calcium deposition assay (Alizarin Red S). Type of data set: cell-based. The settings on record: 2 days treatment, without vitamin D3; mean±SEM. As for the experimental part:
as §1, §2, §3

The test system is the same in data set [5]. Nature of the data set: Immunocytochemistry for proliferating cell nuclear antigen (PCNA) expression. Type of data set: cell-based. The settings on record: 4 days treatment, without vitamin D3. As for the experimental part: Human fetal osteoblast cells (hFOB 1.19-ATCC number: CRL-11372) were seeded at a density of 10,000 cells cm^−2 in a mixture of Dulbecco's modified eagle medium (DMEM) and Ham F12 medium (1:1 ratio) supplemented with 10% fetal bovine serum (FBS) and 0.3 mg/ml […]. Osteoblast cells were cultured in a humidified atmosphere of 5% CO2 at 33.5° C. for cell attachment and proliferation and at 39.5° C. for other assays. These alterations in temperature were required because hFOB 1.19 cells were conditionally immortalized with a gene encoding a temperature-sensitive mutant (tsA58) of SV40 large T antigen.
AC was dissolved in HCl:H2O mixture at the ratio of 13:2. Calcium carbonate and calcium citrate were dissolved in distilled water. The stock solution of vitamin D3 was dissolved in ethyl alcohol as per the manufacturer's instructions and directly added in the medium to achieve its final concentration. […] The same dose was used for further experiments in the present study. The amount of calcium present in 0.5 mg of AC is 0.15 mg. […] Finally, the pH was maintained same in all the preparations.
To evaluate proliferative activity, immunohistochemistry for PCNA was performed after 4 days treatment of AC, calcium carbonate and calcium citrate. The experiment was done by following the instructions of PCNA staining kit (Invitrogen). […]

Where [6] appears, read: in presence of 0.3 mM H2O2, mean±SEM.

Each structure is given as a SMILES string.

As for `OO` [Example H2O2, H2O2], in data set [1] (0.3 mM H2O2 alone, control 0.6768±0.084), the MDA levels is 1.992 ± 0.116 µM.

As for `O=C([O-])[O-].[Ca+2]` [calcium carbonate, Calcium carbonate], the ALP activity in data set [2] is 372.2±15.7 nmol/mg protein. The “[3H] thymidine incorporation counts (DNA synthesis)” value in data set [3] is 62.8±11.6 cpm. In data set [4], the “calcium deposition (mineralization)” value came out at 0.1810±0.0115 OD at 561 nm. The MDA levels in data set [1] (setting [6]) amounted to 1.263 ± 0.062 µM.

Turning to `O=C([O-])CC(O)(CC(=O)[O-])C(=O)[O-].O=C([O-])CC(O)(CC(=O)[O-])C(=O)[O-].[Ca+2].[Ca+2].[Ca+2]` [calcium citrate], the ALP activity in data set [2] was 302.1±47.8 nmol/mg protein. The “[3H] thymidine incorporation counts (DNA synthesis)” value in data set [3] came out at 45±9.9 cpm. In data set [5], the “expression of PCNA” value is “considerably higher than the control and calcium carbonate-treated cells”. In data set [4], the “calcium deposition (mineralization)” value was 0.1267±0.0054 OD at 561 nm. Besides, the MDA levels in data set [1] (setting [6]) amounted to 1.289 ± 0.109 µM.
